For data set [1], the system named is CUTLL1 cells. Put plainly: Cell viability (MTT/colorimetric proliferation) assay. The format is cell-based, human. To be noted: for effect of γ-secretase inhibition on the apoptotic response triggered by the drug: CUTLL1, 100 nM CompE or vehicle, increasing drug concentrations. As for the experimental part: FIG. 1. GSIs reverse glucocorticoid resistance in T-ALL cells. (a-c). […] Statistical significance was assessed with Student's t-test.
FIG. 7. Analysis of the effects of GSI treatment in chemotherapy response. Cell viability analysis in the CUTLL1 cells treated with 100 nM CompE or vehicle only in presence of increasing concentrations of etoposide, methotrexate, L-asparaginase and vincristine. Cell viability was analyzed by an MTT assay and cytotoxicity data was represented as percentage of viable cells compared with non-treated controls. Data are means±s.d. of triplicate experiments.
Proliferation and cell size assays.

In data set [2] the test system is PARP cleavage. Kind of data set: Western blot analysis of PARP cleavage in CUTLL1 cells. Format: cell-based, human. The protocol:
(§1) FIG. 1. […] (a-c). […] (e) Percentage of apoptotic cells (annexinV positive/PI negative) in CUTLL1 (72 hours), KOPTK1 (48 hours) and TALL1 cells (72 hours) treated with DMSO (control), CompE (100 nM), dexamethasone (1 μM) and dexamethasone (1 μM) plus CompE (100 nM). […] Data in (a-f) are means±standard deviation (s.d.) of triplicate experiments. Statistical significance was assessed with Student's t-test.
Western blot analysis. Antibodies against glucocorticoid receptor (E-20, Santa Cruz Biotechnology), BIM (Cell Signaling Technologies); BMF (BD Bioscience) and α-actin (C-11, Santa Cruz Biotechnology) were used in immunoblot assays following manufacturer instructions.
(In western blotting, separated proteins are transferred to a membrane and probed.)

In data set [3] the test system is NOTCH1 signaling. Put plainly: NOTCH1 signaling in CUTLL1 cells. The format is cell-based, human. The note with it: CUTLL1, CompE 72 hours.
Data set [4] relates to TALL1 cells. Put plainly: Cell viability assay. Format: cell-based, human. The protocol:
as §1
(§2) Proliferation and cell size assays. Cell growth ratios were determined by a colorimetric assay using the Cell Proliferation Kit I (MU) (Roche) in cell lines treated with different antileukemic drugs in the presence or absence of CompE (100 nM). The range of concentrations used in these experiments was: dexamethasone (10^−10 to […]), etoposide (10^−10 to 10^−4 M), methotrexate (10^−10 to 10^−4 M), L-Asparaginase (10^−8 to 10^−2 g/l) and vincristine (10^−12 to 10^−6 M).

Data set [5] has as its system KOPTK1 cells. Put plainly: Cell viability assay. The format is cell-based, human. The protocol: as §1, §2
Data set [6] deals with CUTLL1 cells expressing luciferase.
Method: Leukemia xenograft model. Before intravenous xenograft transplantation, recipient animals were irradiated with a total x-ray dose of 300 cGy. Two million CUTLL1 cells expressing luciferase were injected via the tail vein. After a 3-week window for tumor engraftment, mice with homogeneous tumor burdens were segregated into treatment groups (8 animals per group) and treated daily with vehicle (DMSO), dexamethasone (15 mg/kg), DBZ (10 μmol/kg) or dexamethasone (15 mg/kg) plus DBZ (10 μmol/kg) by intraperitoneal injection for 14 days. Disease progression/response was evaluated weekly using bioimaging as described above by integrating the photonic flux (photons per second) through a region around each mouse. Animals were followed up for up to 10 weeks. At the end of the observation period, single cell suspensions from the spleen of surviving animals were analyzed for the presence of leukemic cells by flow cytometry after staining with human anti-CD45-FITC (BD Biosciences).
For data set [7] the following is noted: mouse, in vivo.
The nature of data set [8]: DBZ metabolism by liver microsomes in vitro. To be noted: in the presence of dexamethasone vs vehicle, 37° C. The format is in vitro ADME, mouse. The protocol:
To analyze the effects of dexamethasone in the hepatic metabolism of DBZ, mouse liver microsomes (Xenotech) were incubated with DBZ or dexamethasone plus DBZ at 37° C. and DBZ concentrations were analyzed by LC/MS/MS mass spectrometry in samples taken at serial timepoints using a standard curve prepared in incubation buffer with heat inactivated liver microsomes.
In general terms: Liver microsomes are vesicles of endoplasmic reticulum, rich in cytochrome P450 enzymes.

The test system of data set [9] is Klf4. Put plainly: Klf4 expression in small intestine of treated mice. The format is in vivo.
From the text: KLF4 regulation by NOTCH signaling in the gut. (a,b) Immunohistochemistry analysis of Klf4 expression in small intestine of mice treated with dexamethasone, DBZ or the combination of dexamethasone plus DBZ for 5 days. Scale bars represent 100 μm. (c) Real-time PCR analysis of Klf4 transcript levels in small intestine of mice treated with dexamethasone, DBZ or the combination of dexamethasone plus DBZ for 5 and 10 days. Gapdh levels were used as a reference control. Data are means±s.d. of three animals per group.
Quantitative real-time PCR. […] Total RNA from mouse tissues was extracted using Trizol reagent (Invitrogen). cDNA was generated with the ThermoScript RT-PCR system (Invitrogen) and analyzed by quantitative real-time PCR using SYBR Green RT-PCR Core Reagents kit and the 7300 Real-Time PCR System (Applied Biosystems). Relative expression levels were normalized with GAPDH expression used as a reference control.
Mouse toxicity model. To analyze the effects of GSI cotreatment with dexamethasone in healthy (non-leukemia-bearing) mice, we treated C57/Bl6 female animals (3 mice per group) daily with vehicle (DMSO), dexamethasone (15 mg/kg), DBZ (10 μmol/kg) and dexamethasone (15 mg/kg) plus DBZ (10 μmol/kg) by intraperitoneal injection for 5 and 10 days. […]
Data set [10] is described as follows: Pharmacokinetic analysis of DBZ in mouse plasma. Format: in vivo. The note with it: DBZ 2 μmol/kg tail vein; mice pre-treated with dexamethasone 15 mg/kg for 5 days vs vehicle. The protocol: Pharmacokinetic and drug metabolism studies. […] The concentration of DBZ in mouse plasma was determined using a standard curve (analyte peak area vs. concentration) generated with calibration standard pools.

Data set [11] deals with CUTLL1 T-ALL xenografts. Put plainly: Subcutaneous xenograft model with in vivo bioimaging. Also on record: species or system NOD/SCID mice. To be noted: 4 days of daily i.p. treatment; dexamethasone 15 mg/kg, DBZ 10 μmol/kg.
Method: Subcutaneous xenograft model and in vivo imaging. […] For subcutaneous xenograft experiments, 2.5×10^6 T-ALL cells embedded in matrigel (BD Biosciences) were injected in the flank. After 1 week, mice were segregated into treatment groups (6 animals per group) and treated daily with vehicle (DMSO), dexamethasone (15 mg/kg), DBZ (10 μmol/kg) or dexamethasone (15 mg/kg) plus DBZ (10 μmol/kg) by intraperitoneal injection. For imaging studies, mice were anesthetized by isoflurane inhalation and injected with D-luciferin at 50 mg/Kg (Xenogen) intraperitoneally. Photonic emission was imaged with the In Vivo Imaging System (IVIS, Xenogen) with a collection time of 1 minute. Tumor bioluminescence was quantified by integrating the photonic flux (photons per second) through a region encircling each tumor as determined by the LIVING IMAGES software package (Xenogen).
Data set [12] is described as follows: Mouse toxicity model (histology, immunohistochemistry, flow cytometry). The note with it: 5 days of treatment.

Read-outs that look alike come from different tables or passages of the source.

For the molecule `C[C@H](NC(=O)Cc1cc(F)cc(F)c1)C(=O)N[C@H]1N=C(c2ccccc2)c2ccccc2N(C)C1=O` [CompE], the “cell response to CompE alone (cell cycle, apoptosis)” value in [1] (CUTLL1, 72 hours) was “modest cytostatic response characterized by G1 cell cycle arrest with little or no apoptosis”. Also, the “PARP cleavage (Western blot)” value in [2] (CUTLL1) was “no significant increase in PARP cleavage”. The NOTCH1 signaling entry in [3] is “effectively blocks NOTCH1 signaling”. Besides, the “cell response to CompE treatment alone” value in data set [4] and in data set [5] was “G1 cell cycle arrest” throughout.

For `C[C@H](NC(=O)Cc1cc(F)cc(F)c1)C(=O)NC1C(=O)N(C)c2ccccc2-c2ccccc21` (stereo partly drawn) [DBZ, (2S)-2-[2-(3,5-difluorophenyl)-acetylamino]-N-(5-methyl-6-oxo-6,7-dihydro-5H-dibenzo[b,d]azepin-7-yl)-propionamide], the “toxicity in leukemia-bearing mice (mortality, weight loss)” value in data set [6] (daily i.p. for 14 days) is given as “accelerated mortality associated with weight loss due to GSI toxicity”. Moreover, the survival result in data set [6] (end of the observation period (10 weeks), vs. controls) is on record as “inferior outcome”. Further, in data set [7], the “histopathology of the gut after 5 days” value is recorded as “moderate secretory metaplasia with increased number of goblet cells”, the “intestinal proliferation (Ki67 staining)” value is on record as “marked reduction in proliferation”, the “spleen histology / cellularity” value is reported as “disappearance of the marginal zone in the white pulp” and the “thymus histology / cellularity” value is recorded as “thymic atrophy with loss of the lymphoid cells from the cortex”. Besides, the “DBZ metabolism by liver microsomes” value in data set [8] is reported as “decrease in DBZ metabolism”. The “Klf4 expression by RT-PCR” value in [9] (5 and 10 days) is recorded as “gradual increase of Klf4 expression”. Moreover, the “KLF4 expression by immunohistochemistry” value in [9] (5 days) is “marked increased in KLF4 staining”. The “clearance of DBZ in vivo” value in data set [10] is given as “reduced the clearance of DBZ”. Besides, the “tumor growth / tumor burden by bioimaging” value in [11] is given as “moderate delay in tumor growth”.

In the case of `C[C@@H]1C[C@H]2[C@@H]3CCC4=CC(=O)C=C[C@]4(C)[C@@]3(F)[C@@H](O)C[C@]2(C)[C@@]1(O)C(=O)CO` [dexamethasone], the IC50 in data set [1] (Homo sapiens, CUTLL1 cells, 72 hours, dexamethasone in the presence of CompE (100 nM)) was 77 nM. In addition, in data set [12], the “spleen histology / cellularity” value is “moderate atrophy of the white pulp with preservation of the marginal zone and disorganization of the red pulp”; the “thymus histology / cellularity” value was “thymic atrophy with loss of the lymphoid cells from the cortex”. Besides, in [12] (small intestine, H&E and PAS), the “histopathology of the gut after 5 days” value was “no histopathological changes in the gut”.

Consider `COc1cc([C@@H]2c3cc4c(cc3[C@@H](O[C@@H]3O[C@@H]5CO[C@@H](C)O[C@H]5[C@H](O)[C@H]3O)[C@H]3COC(=O)[C@H]23)OCO4)cc(OC)c1O` [etoposide], for which the “effect of γ-secretase inhibition on the apoptotic response triggered by the drug” value (“effect of γ-secretase inhibition” below) in data set [1] was “did not influence the apoptotic responses”.

As to `CN(Cc1cnc2nc(N)nc(N)c2n1)c1ccc(C(=O)N[C@@H](CCC(=O)O)C(=O)O)cc1` [methotrexate], the “effect of γ-secretase inhibition” value in data set [1] is on record as “did not influence the apoptotic responses”.

Take `CC[C@]1(O)C[C@H]2CN(CCc3c([nH]c4ccccc34)[C@@](C(=O)OC)(c3cc4c(cc3OC)N(C=O)[C@H]3[C@@](O)(C(=O)OC)[C@H](OC(C)=O)[C@]5(CC)C=CCN6CC[C@]43[C@@H]65)C2)C1` [vincristine]: the “effect of γ-secretase inhibition” value in data set [1] is reported as “did not influence the apoptotic responses”.

Turning to Z-VAD, in [2] (CUTLL1, Western blot and annexin V-PI staining), the “effect on PARP cleavage and apoptosis triggered by CompE plus dexamethasone” value is “reversed the induction of PARP cleavage and apoptosis”.

B1: L-asparaginase: antineoplastic drug from Roche; inhibition of protein biosynthesis (protein, UniProt P00805 23-348, looked up)
L-asparaginase 2: LPNITILATGGTIAGGGDSATKSNYTVGKVGVENLVNAVPQLKDIANVKGEQVVNIGSQDMNDNVWLTLAKKINTDCDKTDGFVITHGTDTMEETAYFLDLTVKCDKPVVMVGAMRPSTSMSADGPFNLYNAVVTAADKASANRGVLVVMNDTVLDGRDVTKTNTTDVATFKSVNYGPLGYIHNGKIDYQRTPARKHTSDTPFDVSKLNELPKVGIVYNYANASDLPAKALVDAGYDGIVSAGVGNGNLYKSVFDTLATAAKTGTAVVRSSRVPTGATTQDAEVDDAKYGFVASGTLNPQKARVLLQLALTQTKDPQQIQQIFNQY
Consider B1, for which the “effect of γ-secretase inhibition” value in data set [1] was “did not influence the apoptotic responses”.

A word on the IC50: it is the concentration that inhibits the measured activity by half.

Source of the values: patent US8633179B2, “Synergistic interaction of NOTCH-1 inhibitors with glucocorticoids” (priority 2007, dated 2014).
